Source: patent US8426408B2, “Pyrimidine inhibitors of kinases” (AbbVie Inc., priority 2009, dated 2013)

Key:
Format in all cases: biochemical
KDR = KDR (Homo sapiens, UniProt P35968); test: KDR HTRF in vitro kinase assay; set-up: purified enzyme (His6-KDR 789-1354, MW 63 kD); His6 (N); conditions: 1 mM ATP; read-out: KDR enzyme inhibition data (Ki)
Protocol: To determine the activity of the various kinases, a homogenous time-resolved fluorescence (HTRF) in vitro kinase assay was used. (Mathis, G., HTRF® Technology. J Biomol Screen, 1999. 4(6): p. 309-314; Alfred J. Kolb, Paul V. Kaplita, David J. Hayes, Young-Whan Park, Christine Pernell, John S. Major and Gerard Mathis, Drug Discovery Today, 1998, 3, 333-342.)
For example for KDR, 7 ng/well of purified enzyme (His6-KDR 789-1354, MW 63 kD) was mixed with 0.5 μM N-biotinylated substrate (Biotin-Ahx-AEEEYFFLA-amide (SEQ. ID. 1)), various concentrations of inhibitor in reaction buffer (50 mM HEPES, pH 7.1, 10 mM MgCl2, 2 mM MnCl2, 0.1% BSA and 1 mM DTT, 40 L final volume), ATP (1 mM final conc.) in a black 384-well plate. After 60 minutes incubation at room temperature, the reaction was quenched by addition of a buffered EDTA solution (final approximate concentrations: 30 mM EDTA, 0.1% BSA, 0.1% Triton X-100 and 0.24M KF) and a solution of revelation agents (to give 0.084 ng/well streptavidin-XL-665 (Cis-Bio) and 6.5 ng/well antiphsophotyrosine mAb PT66-K Europium kryptate) was added to the reaction mixture. The quenched reaction was allowed to stand at room temperature for 3 hours and was then read in a time-resolved fluorescence detector (InVision, Perkin-Elmer) at 620 nm and 665 nm sequentially with excitation. The ratio between the signal of 620 nm and 665 nm was used in the calculation of the IC50.

Aurora A = molecular target: T1, Aurora A (Homo sapiens, UniProt O14965); test: Aurora A enzyme inhibition (time-resolved fluorescence, STK substrate-2); conditions: 1 mM ATP
T1 sequence (O14965 1-403): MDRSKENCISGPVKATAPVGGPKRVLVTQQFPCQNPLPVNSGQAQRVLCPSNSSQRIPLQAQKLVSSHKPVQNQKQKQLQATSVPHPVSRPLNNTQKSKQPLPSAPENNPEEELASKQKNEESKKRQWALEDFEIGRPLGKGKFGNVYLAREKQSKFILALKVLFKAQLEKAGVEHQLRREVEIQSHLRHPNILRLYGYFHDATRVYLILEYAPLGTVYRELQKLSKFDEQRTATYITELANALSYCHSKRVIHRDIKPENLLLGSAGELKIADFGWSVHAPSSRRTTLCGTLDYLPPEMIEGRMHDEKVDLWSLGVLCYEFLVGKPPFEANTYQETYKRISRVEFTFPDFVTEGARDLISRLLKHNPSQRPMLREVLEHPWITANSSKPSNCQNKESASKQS
Protocol: To determine Aurora A and C activity of representative compounds of the invention, Active Aurora A or C enzyme was incubated in wells of a 384 well plate with biotinylated STK substrate-2 (Upstate), 1 mM ATP, and various concentrations of inhibitors in a Hepes buffer, pH 7.4 containing MgCl2, sodium othrovanadate, and Triton X-100. After 1 hour, the reaction was stopped with EDTA and anti-phospho-STK antibody Europium Cryptate (Upstate) and SA-XL665 (Upstate) were added to detect the phosphopeptide. The amount of phosphorylation was determined by the time-resolved fluorescence ratio of signals at 665 nm and 615 nm. The IC50s were calculated by an exponential fit of the inhibition values with the inhibitor concentrations using Assay Explorer software.

Aurora B = molecular target: T2, Aurora B (Homo sapiens, UniProt Q96GD4); test: Aurora B enzyme inhibition (time-resolved fluorescence, histone H3 peptide); conditions: 1 mM ATP
T2 construct: Active Aurora B enzyme (recombinant residues 1-344)
T2 sequence (Q96GD4 whole entry, the tested form may be a part): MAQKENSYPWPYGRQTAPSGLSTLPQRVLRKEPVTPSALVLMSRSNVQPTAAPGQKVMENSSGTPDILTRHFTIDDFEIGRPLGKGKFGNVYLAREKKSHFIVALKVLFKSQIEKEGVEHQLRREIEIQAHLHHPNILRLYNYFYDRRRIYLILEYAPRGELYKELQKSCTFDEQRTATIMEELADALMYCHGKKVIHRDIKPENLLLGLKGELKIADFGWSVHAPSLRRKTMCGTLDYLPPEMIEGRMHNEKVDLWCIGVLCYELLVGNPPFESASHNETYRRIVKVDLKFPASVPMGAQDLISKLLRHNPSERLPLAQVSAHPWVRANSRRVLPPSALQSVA
T2 sequence (Q9NQS7 826-918 partner limits assumed): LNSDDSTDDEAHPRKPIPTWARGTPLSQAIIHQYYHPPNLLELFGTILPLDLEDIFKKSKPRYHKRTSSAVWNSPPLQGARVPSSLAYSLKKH
Protocol: To determine Aurora B activity of representative compounds of the invention, Active Aurora B enzyme (recombinant residues 1-344) and INCENP (recombinant GST fusion protein (Upstate)) were incubated in wells of a 384 well plate with biotinylated histone H3 peptide residues 1-21 (Upstate), 1 mM ATP, and various concentrations of inhibitors in a HEPES buffer, pH 7.4 containing MgCl2, sodium othrovanadate, and Triton X-100. After 1 hour, the reaction was stopped with EDTA and anti-phospho-histone H3 Europium Cryptate (Cis-Bio) and SA-APC (Phycolink, Prozyme) were added to detect the phosphopeptide. The amount of phosphorylation was determined by the time-resolved fluorescence ratio of signals at 665 nm and 615 nm. The IC50's were calculated by an exponential fit of the inhibition values with the inhibitor concentrations using Assay Explorer software.

KDR, sequence (P35968 789-1354): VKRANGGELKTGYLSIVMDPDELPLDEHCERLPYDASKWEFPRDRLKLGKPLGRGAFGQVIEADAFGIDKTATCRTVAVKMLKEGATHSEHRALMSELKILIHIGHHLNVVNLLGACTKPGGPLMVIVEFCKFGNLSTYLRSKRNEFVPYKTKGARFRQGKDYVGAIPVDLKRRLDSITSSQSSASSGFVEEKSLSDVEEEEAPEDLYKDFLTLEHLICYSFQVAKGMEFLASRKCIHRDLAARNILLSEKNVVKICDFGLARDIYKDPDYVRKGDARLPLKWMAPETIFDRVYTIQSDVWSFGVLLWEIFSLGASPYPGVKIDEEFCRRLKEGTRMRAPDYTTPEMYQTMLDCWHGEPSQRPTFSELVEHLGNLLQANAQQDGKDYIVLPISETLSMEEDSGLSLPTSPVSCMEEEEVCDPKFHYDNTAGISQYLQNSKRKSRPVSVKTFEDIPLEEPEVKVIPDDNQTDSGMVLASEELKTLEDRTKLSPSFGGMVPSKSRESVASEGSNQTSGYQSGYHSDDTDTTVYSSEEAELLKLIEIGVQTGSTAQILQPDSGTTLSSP

For “5-chloro-N^2-(1H-indazol-5-yl)-N^2-{1-[2-(pyrrolidin-1-yl)ethyl]-1H-pyrazol-4-yl}pyrimidine-2,4-diamine [Example 177]”, the Ki (KDR) was < 100 nM, the Ki (Aurora A) was < 100 nM and the Ki (Aurora B) was < 100 nM.

Work on `Cn1cc(Nc2ncc(F)c(N[C@@H]3C[C@H]4CC[C@@H]3C4)n2)cn1.Cn1cc(Nc2ncc(F)c(N[C@H]3C[C@@H]4CC[C@H]3C4)n2)cn1` (mixture of isomers) [Example 3, N^4-[(1S,2S,4R)-bicyclo[2.2.1]hept-2-yl]-5-fluoro-N^2-(1-methyl-1H-pyrazol-4-yl)pyrimidine-2,4-diamine and N^4-[(1R,2R,4S)-bicyclo[2.2.1]hept-2-yl]-5-fluoro-N^2-(1-methyl-1H-pyrazol-4-yl)pyrimidine-2,4-diamine] yielded a Ki (KDR) of 1000 to 5000 nM, a Ki (Aurora A) of 1000 to 5000 nM and a Ki (Aurora B) of 100 to 1000 nM.

With `Cn1cc(Nc2ncc(F)c(N[C@@H]3CCC[C@@H]3C(N)=O)n2)cn1.Cn1cc(Nc2ncc(F)c(N[C@H]3CCC[C@H]3C(N)=O)n2)cn1` (mixture of isomers) [Example 4, (1S,2R)-2-({5-fluoro-2-[(1-methyl-1H-pyrazol-4-yl)amino]pyrimidin-4-yl}amino)cyclopentanecarboxamide and (1R,2S)-2-({5-fluoro-2-[(1-methyl-1H-pyrazol-4-yl)amino]pyrimidin-4-yl}amino)cyclopentanecarboxamide] the Ki (KDR) was > 5000 nM, the Ki (Aurora A) was > 5000 nM and the Ki (Aurora B) was 100 to 1000 nM.

For `CCOC(=O)[C@@H]1[C@H](Nc2nc(Nc3cnn(C)c3)ncc2F)[C@H]2C=C[C@@H]1C2.CCOC(=O)[C@H]1[C@@H](Nc2nc(Nc3cnn(C)c3)ncc2F)[C@@H]2C=C[C@H]1C2` (mixture of isomers) [Example 7, ethyl(1S,2S,3R,4R)-3-({5-fluoro-2-[(1-methyl-1H-pyrazol-4-yl)amino]pyrimidin-4-yl}amino)bicyclo[2.2.1]hept-5-ene-2-carboxylate and ethyl(1R,2R,3S,4S)-3-({5-fluoro-2-[(1-methyl-1H-pyrazol-4-yl)amino]pyrimidin-4-yl}amino)bicyclo[2.2.1]hept-5-ene-2-carboxylate], the Ki (KDR) was > 5000 nM, the Ki (Aurora A) was > 5000 nM and the Ki (Aurora B) was 100 to 1000 nM.

`CC(O)Cn1cc(Nc2ncc(F)c(NC3C4C=CC(C4)C3C(N)=O)n2)cn1` (mixture of isomers) [Example 15, (1R,2R,3S,4S)-3-{[5-fluoro-2-({1-[(2R)-2-hydroxypropyl]-1H-pyrazol-4-yl}amino)pyrimidin-4-yl]amino}bicyclo[2.2.1]hept-5-ene-2-carboxamide and (1S,2S,3R,4R)-3-{[5-fluoro-2-({1-[(2R)-2-hydroxypropyl]-1H-pyrazol-4-yl}amino)pyrimidin-4-yl]amino}bicyclo[2.2.1]hept-5-ene-2-carboxamide] was tested, and the Ki (KDR) was 1000 to 5000 nM, the Ki (Aurora A) was 100 to 1000 nM and the Ki (Aurora B) was < 100 nM.

In the case of `C[C@@H](O)Cn1cc(Nc2ncc(F)c(N[C@@H]3[C@H]4CC[C@H](C4)[C@@H]3C(N)=O)n2)cn1.C[C@@H](O)Cn1cc(Nc2ncc(F)c(N[C@H]3[C@@H]4CC[C@@H](C4)[C@H]3C(N)=O)n2)cn1` (mixture of isomers) [Example 16, (1S,2R,3S,4R)-3-{[5-fluoro-2-({1-[(2R)-2-hydroxypropyl]-1H-pyrazol-4-yl}amino)pyrimidin-4-yl]amino}bicyclo[2.2.1]heptane-2-carboxamide and (1R,2S,3R,4S)-3-{[5-fluoro-2-({1-[(2R)-2-hydroxypropyl]-1H-pyrazol-4-yl}amino)pyrimidin-4-yl]amino}bicyclo[2.2.1]heptane-2-carboxamide], the Ki (KDR) is reported as 1000 to 5000 nM, the Ki (Aurora A) is reported as 100 to 1000 nM and the Ki (Aurora B) is reported as 100 to 1000 nM.
